According to paper PMC4857601 (Nature chemistry, 2016):
Changes are numbered by the printed parent chain.

Legend:
[1] = molecular target: T1, DFsc (2A3H-DFsc), [DFsc-Zn(II)2] (synthetic construct, UniProt Z9QLD2D1S0, H107N); test: UV/vis; format: binding; details: Zn(II)-bound form; bound as semiquinone derived from 4-t-butylcatechol
T1 sequence (Z9QLD2D1S0 1-115 H107N): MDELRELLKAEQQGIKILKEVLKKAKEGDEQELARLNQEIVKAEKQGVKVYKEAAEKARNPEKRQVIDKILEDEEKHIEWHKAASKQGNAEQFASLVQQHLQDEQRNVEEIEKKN

[2] = molecular target: T2, DFsc (2A3H-DFsc), [DFsc-Zn(II)2] (synthetic construct, UniProt Z9QLD2D1S0, H107A); test: UV/vis; format: binding; details: Zn(II)-bound form; bound as semiquinone derived from 4-t-butylcatechol
T2 sequence (Z9QLD2D1S0 1-115 H107A): T1 sequence (Z9QLD2D1S0 1-115 H107N) with N107A

Q: With `CC(C)(C)c1ccc(O)c(O)c1` as the compound, how does the UV/vis [1] read?
A: The variants also form a 4-t-butylcatechol-derived SQ• complex

Q: What about the UV/vis [2] of the same compound?
A: The variants also form a 4-t-butylcatechol-derived SQ• complex
